Assay results as given in patent US7781565B2 (priority 2006, dated 2010).
Entries after “also recorded” stand apart in the source; their conditions may differ.

Tested on: NCI-60 cell lines
Assay type: cell-based, human

Substance | Cell Line (NCI-60 cell line the peptide and its motif are associated with) | Cell Line the peptide is associated with (peptide recovered from phage library selection on this NCI-60 cell line) | Cell Line (NCI-60 cell line the peptide is associated with) | Cell Line with which the peptide (and its tripeptide motif) is associated
GLLSSFS | M14 Melanoma | – | – | –
GLMRLSH | UACC62 Melanoma | – | – | –
GLRDGVE | – | A498 Renal | – | –
GLREAHV | UACC62 Melanoma | – | – | –
GLREVQD | – | HS 578 T Breast | – | –
GLRGSVW | – | – | COLO-205-Colon | –
GLRGVVK | – | – | HCT-116 Colon | –
GLRKAGF | – | – | – | SR Leukemia
GLRLGVT | – | – | HT-29 Colon | –
GLRPHGA | UACC 257 Melanoma | – | – | –
GLRRDNG | OVCAR-3 Ovarian | – | – | –
GLRTRQV | – | – | – | Hop-92-Lung
GLRVYEP | PC3 Prostate | – | – | –
GLSRGVL | – | ACHN Renal | – | –
GLVARVR | SK-MEL-28 Melanoma | – | – | –
GLVASMP | IGROV1 Ovarian | – | – | –
GLVGFTG | – | – | – | Hop-62-Lung
GLVGGSS | – | – | – | H460-Lung
GLVGRRA | – | – | COLO-205-Colon | –
GLVGWGI | – | BT-549 Breast | – | –
GLVKLRS | – | MCF-7 Breast | – | –
GLVRCVL | – | – | COLO-205-Colon | –
GLVRGFP | – | – | – | SR Leukemia

Substance | Cell Line (NCI-60 cell line the peptide and its motif are associated with) | Cell Line the peptide is associated with (peptide recovered from phage library selection on this NCI-60 cell line) | Cell Line (NCI-60 cell line the peptide is associated with) | Cell Line with which the peptide (and its tripeptide motif) is associated
GLVRGTA | – | – | – | Molt-4-Leukemia
GLVRRVV | – | CAIK-1 Renal | – | –
GLVSAFY | – | – | – | Hop-62-Lung
GLVSSLP | – | – | HCT-15 Colon | –
GLVSTLI | – | BT-549 Breast | – | –
GLVSVEA | – | – | – | A549-Lung
GLVTAPL | – | – | COLO-205-Colon | –
GLWAAVL | – | TK-10 Renal | – | –
GLWYRAV | SK-MEL-28 Melanoma | – | – | –
GNGGARG | M14 Melanoma | – | – | –
GNYGSVL | – | – | – | Hop-92-Lung
GPFRAVP | – | – | COLO-205-Colon | –
GPGGSKR | – | SN12C Renal | – | –
GPSFDAK | – | RXF393 Renal | – | –
GPSSAVE | OVCAR-5 Ovarian | – | – | –
GPSSMTF | – | – | COLO-205-Colon | –
GPSVLDI | OVCAR-8 Ovarian | – | – | –
GPSWATV | – | – | LOX-IMVI Melanoma | –
GQGAASL | – | – | – | H522-Lung
GRAGGNG | M14 Melanoma | – | – | –
GRAVWMV | – | – | KM-12C Colon | –
GRDWGGL | – | T-47D Breast | – | –
GRERVSH | – | CAIK-1 Renal | – | –

Substance | Cell Line (NCI-60 cell line the peptide and its motif are associated with) | Cell Line the peptide is associated with (peptide recovered from phage library selection on this NCI-60 cell line) | Cell Line (NCI-60 cell line the peptide is associated with) | Cell Line with which the peptide (and its tripeptide motif) is associated
GRGDRGV | SK-MEL-28 Melanoma | – | – | –
GRGGSGY | – | – | HT-29 Colon | –
GRGLRTD | – | – | SF-295 CNS | –
GRGSFES | – | – | – | SR Leukemia
GRGSGGF | – | – | LOX-IMVI Melanoma | –
GRGVGTD | – | – | HT-29 Colon | –
GRGVLAF | – | – | KM-12C Colon | –
GRGVTIW | – | – | HT-29 Colon | –
GRIRLSF | – | RXF393 Renal | – | –
GRLAAGS | – | MCF-7 Breast | – | –
GRLAKSI | UACC 257 Melanoma | – | – | –
GRLAVVA | – | – | HT-29 Colon | –
GRLDAFG | SK-MEL-5 Melanoma | – | – | –
GRLLAGG | – | – | – | Hop-92-Lung
GRLMPGG | – | ACHN Renal | – | –
GRLRASL | – | – | SF-295 CNS | –
GRLRLRV | – | – | SF-295 CNS | –
GRLRLTD | – | – | – | HL-60-Leukemia
GRLRPFS | – | TK-10 Renal | – | –
GRLSFGV | – | ACHN Renal | – | –
GRLSRAP | OVCAR-4 Ovarian | – | – | –
GRLVWGL | – | – | HCT-116 Colon | –
GRLWGFW | – | – | – | H226-Lung

Substance | Cell Line (NCI-60 cell line the peptide and its motif are associated with) | Cell Line the peptide is associated with (peptide recovered from phage library selection on this NCI-60 cell line) | Cell Line (NCI-60 cell line the peptide is associated with) | Cell Line with which the peptide (and its tripeptide motif) is associated
GRLWSRV | – | – | – | Hop-92-Lung
GRLWWHT | – | – | – | Hop-92-Lung
GRLWYVA | DU-145 Prostate | – | – | –
GRLYLGI | – | – | SF-295 CNS | –
GRLYYYR | – | – | – | RPMI-8226-Leukemia
GRMLVSG | OVCAR-4 Ovarian | – | – | –
GRPLGGR | – | – | HCT-15 Colon | –
GRRVSLV | – | – | – | SR Leukemia
GRSSAGP | – | MDA-MB-231 Breast | – | –
GRSSGME | – | – | HT-29 Colon | –
GRSSVSD | OVCAR-8 Ovarian | – | – | –
GRVDPVD | – | T-47D Breast | – | –
GRVGRDG | – | A498 Renal | – | –
GRVHLMP | – | – | – | Hop-92-Lung
GRVKPGA | DU-145 Prostate | – | – | –
GRVPGFE | – | – | – | H322-Lung
GRVPTVV | – | – | KM-12C Colon | –
GRVRETP | UACC62 Melanoma | – | – | –
GRVTGGR | – | – | HCT-15 Colon | –
GRVTLES | OVCAR-3 Ovarian | – | – | –
GRVTVAV | – | – | – | A549-Lung
GRVTWRS | OVCAR-5 Ovarian | – | – | –
GRVVGEA | – | – | – | H322-Lung

Substance | Cell Line (NCI-60 cell line the peptide and its motif are associated with) | Cell Line the peptide is associated with (peptide recovered from phage library selection on this NCI-60 cell line) | Cell Line (NCI-60 cell line the peptide is associated with) | Cell Line with which the peptide (and its tripeptide motif) is associated
GRWTGSS | – | MCF-7 Breast | – | –
GRYSLRS | – | – | – | RPMI-8226-Leukemia
GSARGML | – | – | – | SR Leukemia
GSGGANL | DU-145 Prostate | – | – | –
GSGGSVH | – | – | – | Hop-92-Lung
GSGHSFA | – | – | KM-12C Colon | –
GSGILDL | – | – | – | EKVX-Lung
GSGQLIP | M14 Melanoma | – | – | –
GSGRALA | SK-MEL-2 Melanoma | – | – | –
GSGRGVA | – | – | – | Hop-92-Lung
GSGRQLP | – | BT-549 Breast | – | –
GSGSSSR | – | TK-10 Renal | – | –
GSGSVRT | – | BT-549 Breast | – | –
GSGVRVS | SK-MEL-28 Melanoma | – | – | –
GSGYFIT | 786-0 Renal | – | – | –
GSITGGS | IGROV1 Ovarian | – | – | –
GSLGVSL | – | – | – | H226-Lung
GSMHRVS | – | – | SF-295 CNS | –
GSNGSSH | OVCAR-8 Ovarian | – | – | –
GSSACGA | – | – | U251 CNS | –
GSSELSR | DU-145 Prostate | – | – | –
GSSGLLA | – | NCI/ADR-RES Breast | – | –
GSSHDAL | – | – | SNB-19 CNS; also recorded: SF-539 CNS | –

Substance | Cell Line (NCI-60 cell line the peptide and its motif are associated with) | Cell Line the peptide is associated with (peptide recovered from phage library selection on this NCI-60 cell line) | Cell Line (NCI-60 cell line the peptide is associated with) | Cell Line with which the peptide (and its tripeptide motif) is associated
GSSLHLL | – | – | – | RPMI-8226-Leukemia
GSSLSRP | – | RXF393 Renal | – | –
GSSRPSI | – | – | HCT-15 Colon | –
GSSRQFV | – | – | – | A549-Lung
GSSRTFR | – | – | – | A549-Lung
GSSRVRW | – | – | HCT-15 Colon | –
GSSTLQW | – | TK-10 Renal | – | –
GSSVSLG | – | BT-549 Breast | – | –
GSSWVVD | – | – | – | A549-Lung
GSSYSGP | – | – | HCT-116 Colon | –
GSTLLSR | – | – | LOX-IMVI Melanoma | –
GSVFGTP | – | UO31 Renal | – | –
GSVLGAL | – | – | HT-29 Colon | –
GSVLGDY | – | – | COLO-205-Colon | –
GSVLHVS | – | HS 578 T Breast | – | –
GSVLMRG | OVCAR-4 Ovarian | – | – | –
GSVLPVL | SK-OV-3-3 Ovarian | – | – | –
GSVSAGA | – | – | HT-29 Colon | –
GSVSDRF | – | – | SF-268 CNS | –
